{"source": "patent US6563014B2", "about": "“Self-contained system for sustained viral replication” (Albert Einstein College of Medicine of Yeshiva University, priority 1999, dated 2003)", "tested_on": "HIV-1", "assay": "Effect of protease inhibitor treatment on plasma HIV RNA levels in transgenic mice", "format": "in vivo", "from_the_text": "(iv) Quantitation of plasma HIV RNA levels: HIV RNA in the mouse plasma was quantitated by using the Roche AMPLICOR HIV-1 MONITOR™ kits (Roche Diagnostic Systems, Branchburg, N.J.) which can measure virion associated HIV-1 RNA in plasma at concentrations as low as 400 RNA copies/ml as described (Pettoello-Mantovani, M., et al., J. Infect. Dis.1 77:337-346, 1998). After plasma was isolated from the peripheral blood of the JR-CSF TG mice, an internal HIV quantitation standard (QS), a synthetic RNA molecule with primer binding sites identical to the HIV target and an internal probe sequence specific to the QS RNA molecule, was added to 200 μl of each plasma sample. RNA was then extracted from the plasma samples with a Lysis Reagent containing guanidine thiocyanate, precipitated with isopropanol, resuspended in reaction buffer and a 142 base pair sequence in the HIV gag gene was amplified by reverse transcription and PCR using rtth pol and biotinylated primers SK431 and SK462. In order to prevent PCR product contamination, dUTP was incorporated during the PCR reaction and then all of the samples were treated with AmpErase prior to PCR to eliminate carryover of any dUTP-containing PCR product. The biotinylated HIV and QS amplicons were quantitated by detection in separate wells of a microwell plate coated with HIV-specific and QS-specific oligonucleotide probes, respectively, using avidin-horseradish peroxidase conjugate and a calorimetric reaction for horseradish peroxidase. The HIV and QS amplicons were measured in a dynamic range from 400 to 750,000 copies/ml by performing 5-fold serial dilutions of the amplicons in the HIV-specific and QS-specific wells of the microplate (rows A to F and G to H, respectively). The HIV RNA copy number was then calculated from the known input copy number of the QS RNA, the optical densities at 450 nm of the HIV-well and the QS-well that fell within a defined range, and the dilution factors associated with the selected wells.\nFirst, the mean plasma viral levels in the hu-CD4/CCR5/JRCSF TG mice are higher that in the JR-CSF TG mice. […]", "key": {"[1]": {"conditions": "hu-CD4/CCR5/JRCSF TG mice, FIG. 14"}}, "data": [{"smiles": "CC(C)c1nc(CN(C)C(=O)N[C@H](C(=O)N[C@@H](Cc2ccccc2)C[C@H](O)[C@H](Cc2ccccc2)NC(=O)OCc2cncs2)C(C)C)cs1", "note": "[protease inhibitor, ritonavir]", "values": [{"measurement": "plasma viremia after treatment with a protease inhibitor", "setting": "JR-CSF TG mice", "result": "did not decrease and actually went up"}, {"measurement": "plasma HIV RNA levels after the protease inhibitor was stopped", "setting": "[1]", "result": "went back up"}, {"measurement": "plasma HIV RNA levels after treatment with the protease inhibitor", "setting": "[1]", "result": "markedly decreased"}]}]}
